Here are results for 17 compounds from publication PMC6150325 (Molecules : A Journal of Synthetic Chemistry and Natural …, 2017).

As usually defined, the IC50 is the point on the concentration scale where inhibition reaches its midpoint. Broadly, the Ki is a measure of affinity in units of concentration, obtained from inhibition or displacement.

Each structure is given as a SMILES string. “And” between values parts separate entries of the source, which are not always exact repeats. Equal values may be shown once. Read-outs that look alike come from different tables or passages of the source.

In experiment [1] the target is T1, bacterial Vibrio cholerae neuraminidase (VCNA) (Vibrio cholerae serotype O1, UniProt P0C6E9).
T1 construct: purchased Hoffmann La Roche, Basel, Switzerland
Briefly: biochemical. Particulars: mean ± SD, n = 3–6.

For experiment [2], the target named is viral influenza A/California/04/2009 (H1N1) neuraminidase (H1N1-NA) (Influenza A virus (A/California/04/2009(H1N1)), UniProt C3W5S3). Briefly: biochemical. The class given is biochemical.
Experiment [3] deals with Ruminococcus gnavus NA. Particulars: cited from earlier work.
Experiment [4] has as its target Streptococcus pneumoniae NA NanA. Particulars: cited from earlier work.
Experiment [5] addresses T2, bacterial VCNA (Vibrio cholerae serotype O1, UniProt P0C6E9).
T2 construct: purchased Hoffmann La Roche, Basel, Switzerland
Briefly: biochemical.
Method: The median–effect concentration (Dm, a parameter analogous to the IC50 value indicating potency), the slope of the concentration–effect relationship (m, the dynamic order or the shape of dose–effect curve), and the linear regression correlation coefficient (r, a measure of data quality) were determined from the median–effect plots.
The concentration–efficiency curves of the test samples were transformed into the double-logarithmic mean action diagram (shape (m), intercepts and regression coefficients were used to determine the median effect dose Dm). Dm= 10^−(b/m)
Fraction affected (fa) and fraction unaffected (fu) by the concentration D were calculated by the median effect equation [27]: fa/fu= (D/Dm)^m
Dm is the concentration required to produce the median effect.

T1 sequence (P0C6E9 25-781): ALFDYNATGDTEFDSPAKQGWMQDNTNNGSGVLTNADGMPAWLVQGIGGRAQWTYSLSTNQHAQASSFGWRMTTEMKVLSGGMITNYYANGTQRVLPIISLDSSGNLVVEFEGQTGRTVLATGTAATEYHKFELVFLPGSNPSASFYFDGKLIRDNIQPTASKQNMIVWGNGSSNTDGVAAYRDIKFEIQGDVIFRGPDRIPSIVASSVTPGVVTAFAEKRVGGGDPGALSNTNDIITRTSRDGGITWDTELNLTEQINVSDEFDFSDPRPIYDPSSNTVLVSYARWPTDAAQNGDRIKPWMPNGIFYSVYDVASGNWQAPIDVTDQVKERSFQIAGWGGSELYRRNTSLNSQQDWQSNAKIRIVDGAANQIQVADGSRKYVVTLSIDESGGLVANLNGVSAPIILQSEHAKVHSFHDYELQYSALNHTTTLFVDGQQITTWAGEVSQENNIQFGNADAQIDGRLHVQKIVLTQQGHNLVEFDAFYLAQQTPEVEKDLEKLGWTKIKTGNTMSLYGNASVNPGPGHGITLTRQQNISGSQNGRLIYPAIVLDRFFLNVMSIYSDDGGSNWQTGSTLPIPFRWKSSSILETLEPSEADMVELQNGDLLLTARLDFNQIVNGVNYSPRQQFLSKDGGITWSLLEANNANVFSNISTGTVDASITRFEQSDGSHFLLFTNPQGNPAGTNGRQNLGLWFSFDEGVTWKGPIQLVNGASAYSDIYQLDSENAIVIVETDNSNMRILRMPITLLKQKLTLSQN
T2 sequence (P0C6E9 25-781): as above

Consider `O=C(O[C@@H]1Cc2c(O)cc(O)cc2O[C@@H]1c1cc(O)c(O)c(O)c1)c1cc(O)c(O)c(O)c1` [epigallocatechin-3-O-gallate], for which the IC50 was 63.3 µM and 64 µM in experiment [1]; 1560 µM in experiment [2] (IC50 (Viral)).

Take `O=C(O[C@H]1Cc2c(O)cc(O)cc2O[C@@H]1c1cc(O)c(O)c(O)c1)c1cc(O)c(O)c(O)c1` [gallocatechin-3-O-gallate]: the IC50 in experiment [1] was 24 µM and 25 µM; in experiment [2] (IC50 (Viral)), 395 µM and 396 µM.

With `Oc1cc(O)c2c(c1)O[C@H](c1cc(O)c(O)c(O)c1)[C@H](O)C2` [epigallocatechin], the IC50 in experiment [1] is 1950 µM and 1960 µM; in experiment [2] (IC50 (Viral)), 1740 µM.

Take `CCC(CC)O[C@@H]1C=C(C(=O)O)C[C@H](N)[C@H]1NC(C)=O` [oseltamivir carboxylate]: the IC50 in experiment [3] was 30 µM. Besides, in experiment [4], the Ki is 1.77 µM.

On to `Oc1cc(O)c2c(c1)O[C@H](c1ccc(O)c(O)c1)[C@@H](O)C2` [catechin], for which the IC50 is 2050 µM in experiment [1]; 1070 µM and 1080 µM in experiment [2] (IC50 (Viral)).

Regarding `O=C1OCC2OC(=O)c3cc(O)c(O)c(O)c3-c3c(O)c(O)c(O)c4c3C(=O)OC(C2OC(=O)c2cc(O)c(O)c(O)c2-c2c1cc(O)c(O)c2O)C1OC(=O)c2c-4c(O)c(O)c(O)c2C1O` (stereo not drawn) [vescalagin], in experiment [1], the midpoint of inhibition, the IC50, lay at 134 µM.

In the case of `O=C1OC[C@@H](O)[C@H]([C@@H]2OC(=O)c3cc(O)c(O)c(O)c3-c3c(O)c(O)c(O)c4c3C(=O)O[C@H]2[C@@H]4O)OC(=O)c2cc(O)c(O)c(O)c2-c2c1cc(O)c(O)c2O` [casuariin], the IC50 in experiment [1] is 236 µM.

As for `O=C1O[C@H]2[C@H](OC(=O)c3cc(O)c(O)c(O)c3)[C@@H](OC(=O)c3cc(O)c(O)c4c3[C@@H]3C1=CC(=O)[C@](O)(O4)C3(O)O)[C@@H]1OC(=O)c3cc(O)c(O)c(O)c3-c3c(cc(O)c(O)c3O)C(=O)OC[C@H]2O1` [carpinusin], it took 138 µM to reach half-maximal inhibition in experiment [1] (IC50).

In the case of `CC(=O)N[C@H]1[C@H]([C@H](O)[C@H](O)CO)OC(C(=O)O)=C[C@@H]1N=C(N)N` [zanamivir, 2,4-dideoxy-2,3-didehydro-4-guanidino-N-acetylneuraminic acid], the IC50 was 51.2 µM and 52 µM in experiment [1]; 11900 µM in experiment [3]; 51.2 µM in experiment [5]. In experiment [5] (VCNA, median effect plot), the “m (slope of the concentration–effect relationship)” value was 0.9. Besides, the Ki in experiment [4] is 720 µM.

Consider `O=C1O[C@H]2[C@H](OC(=O)c3cc(O)c(O)c(O)c3)[C@@H](OC(=O)c3cc(O)c(O)c4c3[C@@H]3C1=CC(=O)C(O)(O)C3(O)O4)[C@H](OC(=O)c1cc(O)c(O)c(O)c1)O[C@@H]2COC(=O)c1cc(O)c(O)c(O)c1` (stereo partly drawn) [terchebin], for which the IC50 was 30.4 µM and 31 µM in experiment [1]; 102 µM and 101 µM in experiment [2] (IC50 (Viral)). Moreover, the “fold higher inhibitory potency compared to paeonianin C” value in experiment [2] came to 3.5 fold.

Consider `O=C(O[C@H]1Cc2c(O)cc(O)cc2O[C@@H]1c1ccc(O)c(O)c1)c1cc(O)c(O)c(O)c1` [catechin-3-O-gallate], for which the IC50 in experiment [1] was 54.3 µM and 55 µM; in experiment [2] (IC50 (Viral)), 1950 µM.

For the compound `Oc1cc(O)c2c(c1)O[C@H](c1cc(O)c(O)c(O)c1)[C@@H](O)C2` [gallocatechin], the figures for the IC50 in experiment [1] and in experiment [2] (IC50 (Viral)) were 1970 µM and 1790 µM, respectively.

As to `O=C(OCC1OC(OC(=O)c2cc(O)c(O)c(O)c2)C(OC(=O)c2cc(O)c(O)c(O)c2)C(OC(=O)c2cc(O)c(O)c(O)c2)C1OC(=O)c1cc(O)c(O)c(O)c1C1c2c(O)c(O)c(O)c3c2C(=O)OC1C(C1OC(=O)c2cc(O)c(O)c(O)c2-c2c(cc(O)c(O)c2O)C(=O)OCC1O)OC(=O)c1cc(O)c(O)c(O)c1-3)c1cc(O)c(O)c(O)c1` (stereo not drawn) [paeonianin C], the IC50 in experiment [1] was 14.6 µM and 15 µM; in experiment [2] (read-out: IC50 (Viral)), 344 µM.

On to `O=C(O[C@@H]1Cc2c(O)cc(O)cc2O[C@@H]1c1ccc(O)c(O)c1)c1cc(O)c(O)c(O)c1` [epicatechin-3-O-gallate], for which the IC50 in experiment [1] is 210 µM and 211 µM; in experiment [2] (IC50 (Viral)), 1910 µM.

On to `O=C1O[C@H]2[C@@H]3OC(=O)c4cc(O)c(O)c(O)c4-c4c(cc(O)c(O)c4O)C(=O)OC[C@H]2O[C@@H](OC(=O)c2cc(O)c(O)c(O)c2)[C@@H]3OC(=O)c2cc(O)c(O)c3c2[C@@H]2C1=CC(=O)[C@](O)(O3)C2(O)O` [geraniin], for which the IC50 in experiment [1] was 134 µM and 135 µM.

Regarding `Oc1cc(O)c2c(c1)O[C@H](c1ccc(O)c(O)c1)[C@H](O)C2` [epicatechin], the results for the IC50 in experiment [1] and in experiment [2] (IC50 (Viral)) were 2310 µM and 1050 µM, respectively.

In the case of `O=C1O[C@H]2[C@H](O)[C@@H](OC(=O)c3cc(O)c(O)c4c3[C@@H]3C1=CC(=O)[C@](O)(O4)C3(O)O)[C@@H]1OC(=O)c3cc(O)c(O)c(O)c3-c3c(cc(O)c(O)c3O)C(=O)OC[C@H]2O1` [granatin A], the IC50 in experiment [1] was 155 µM and 158 µM.
